Assay [1] deals with MDA-MB-436 cells. The assay is described as follows: MDA-MB-436 proliferation assay (negative control cell line). In kind it is cell-based. The note with it: Homo sapiens, 144 h, Alamar Blue, read-out: MDA-MB-436 proliferation assay, EC50 [M] (arithmetic mean). From the text:
(§1) For compound characterization cell survival assays were routinely run in two cell lines. ZR-75-1 is a breast carcinoma cell line containing a focal KAT6A amplification and high KAT6A protein expression. Proliferation of this cell line is inhibited upon treatment with KAT6A inhibitors. As a negative control cell line MDA-MB-436 were used. These cells carry a […] deletion of the KAT6A gene, have a low KAT6A protein expression and are not growth inhibited upon treatment with KAT6A inhibitors.
(§2) For measurements cell lines were plated at the below indicated concentration per […] in 96-well plates in a humidified incubator at 37° C. and 5% CO2.
MDA-MB-436 (CLS, 300278; breast adenocarcinoma); 3000 cells per well; culture medium: DMEM/Ham's F12 (Biochrom #FG 4815) medium containing 2.5% FBS (Biochrom #S0615).
(§3) Each sample was prepared as triplicate and rim wells were excluded. Plates were incubated at 37° C. and 5% CO2 for 144 h. Cell viability was measured by adding 10 μL of Alamar Blue Reagent (Invitrogen #DAL 1100) and plates were incubated for 2 h at 37° C. and 5% CO2. Fluorescence was measured at 590 nm wavelength with a Tecan Spark or Victor X3 MTP-Reader (PerkinElmer).

The subject of assay [2] is ESR1 transcription in MVLN cells. The assay is described as follows: MVLN reporter assay: repression of ESR1 transcription (luciferase signal). In kind it is cell-based. The settings on record: Homo sapiens, MVLN, 24 h, luciferase signal after 24 h, read-out: MVLN reporter assay, IC50 [M] (arithmetic mean). The procedure, abridged: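 To control for cell loss, Alamar Blue (2 h, 530/590 nm) precedes the 24 h luciferase measurement. The reporter is an ERE from the Xenopus vitellogenin A2 gene driving luciferase, stably transfected into ER-expressing MVLN cells; duplicate samples.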

The target in assay [3] is T1, Recombinant human His-tagged Kat6a protein (amino acids 194-810) (Homo sapiens, UniProt Q92794).
T1 construct: Kat6a protein (amino acids 194-810); His
T1 sequence (Q92794 194-810): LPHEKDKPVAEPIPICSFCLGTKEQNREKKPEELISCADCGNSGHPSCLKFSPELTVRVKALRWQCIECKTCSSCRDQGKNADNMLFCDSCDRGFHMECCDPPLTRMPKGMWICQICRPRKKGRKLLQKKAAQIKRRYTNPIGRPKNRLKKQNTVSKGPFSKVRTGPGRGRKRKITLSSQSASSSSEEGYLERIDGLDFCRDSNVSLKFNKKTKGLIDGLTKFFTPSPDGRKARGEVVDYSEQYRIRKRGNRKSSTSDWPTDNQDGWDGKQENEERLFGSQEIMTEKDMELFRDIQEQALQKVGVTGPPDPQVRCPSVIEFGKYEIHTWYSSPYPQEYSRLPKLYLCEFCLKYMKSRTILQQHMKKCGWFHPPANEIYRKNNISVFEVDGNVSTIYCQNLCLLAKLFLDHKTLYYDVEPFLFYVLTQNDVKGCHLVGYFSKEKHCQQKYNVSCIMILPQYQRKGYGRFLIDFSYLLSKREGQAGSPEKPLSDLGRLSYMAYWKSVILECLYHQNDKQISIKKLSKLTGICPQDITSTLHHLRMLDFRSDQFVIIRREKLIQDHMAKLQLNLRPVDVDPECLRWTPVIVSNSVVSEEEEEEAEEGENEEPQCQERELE
As to the kind of experiment: Kat6a activity assay (TR-FRET, acetylation of Histone-H4-derived peptide). The assay is classed as biochemical. The settings on record: 60 mins at 22° C., 220 nM H4 peptide, 600 nM Acetyl Coenzyme A, read-out: KAT6A - DPF/HAT domain IC50 [mol/l] (arithmetic mean). For orientation: TR-FRET usually uses a lanthanide donor and a delayed reading to cut background.

Assay [4] concerns LCLC97TM1. As to the kind of experiment: LCLC97TM1 proliferation assay. In kind it is cell-based. The settings on record: Homo sapiens, LCLC-97TM1, LCLC97TM1; read-out: LCLC97TM1 proliferation assay; EC50 [M] (arithmetic mean).
The subject of assay [5] is ZR-75-1 cells. The assay is described as follows: ZR-75-1 proliferation assay. The assay is classed as cell-based. The note with it: Homo sapiens, ZR-75-1, 144 h, Alamar Blue, read-out: ZR75-1 proliferation assay, EC50 [M] (arithmetic mean).
Excerpt: as §1, §2
ZR-75-1 (ATCC, CRL-1500; breast carcinoma); 3000 cells per well; culture medium: RPMI 1640 (Biochrom #FG 1215) medium containing 2.5% FBS (Biochrom #S0615).
as §3

The record followed here is patent US20240279207A1, “SUBSTITUTED ACYL SULFONAMIDES FOR TREATING CANCER” (The Broad Institute, Inc., priority 2020, published 2024).

Consider `CCOc1ccccc1S(=O)(=O)NC(=O)c1cc2c(F)cc(N3CCC3(C)C)cc2o1` [Example 219, 6-(2,2-Dimethylazetidin-1-yl)-N-(2-ethoxyphenyl)sulfonyl-4-fluoro-benzofuran-2-carboxamide], for which, in assay [1], the EC50 is more than 2e-05 M. Also, the IC50 in assay [2] came to 3.86e-06 M; in assay [3], 1.85 µM.
`O=C(NS(=O)(=O)c1ccccc1-c1ccccc1)c1cc2c(F)cc(N3CCC3)cc2o1` [Example 19, 6-(Azetidin-1-yl)-N-([1,1′-biphenyl]-2-sulfonyl)-4-fluoro-1-benzofuran-2-carboxamide]: the EC50 in assay [1] was more than 2e-05 M. The IC50 is 2.06e-07 M in assay [2] and 0.0188 µM in assay [3].
For the compound `CCOc1ccccc1S(=O)(=O)NC(=O)c1cc2ccc(N3CC4(CC4)C3)cc2o1` [Example 122, 6-(5-Azaspiro[2.3]hexan-5-yl)-N-(2-ethoxybenzene-1-sulfonyl)-1-benzofuran-2-carboxamide], the EC50 in assay [1] is more than 2e-05 M. In addition, the figures for the IC50 in assay [2] and in assay [3] were more than 2e-05 M and more than 20 µM, respectively.
As for `Cc1ccc2cccc(S(=O)(=O)NC(=O)c3cc4c(F)cc(N5CCC5(C)C)cc4o3)c2n1` [Example 218, 6-(2,2-Dimethylazetidin-1-yl)-4-fluoro-N-[(2-methyl-8-quinolyl)sulfonyl]benzofuran-2-carboxamide], the EC50 in assay [1] is more than 2e-05 M. In addition, the results for the IC50 in assay [2] and in assay [3] were 1.91e-06 M and 0.271 µM, respectively.
With `COc1ccc(C(C)(C)C)cc1S(=O)(=O)NC(=O)c1cc2c(F)cc(N3CCC3)cc2o1` [Example 127, 6-(Azetidin-1-yl)-N-(5-tert-butyl-2-methoxybenzene-1-sulfonyl)-4-fluoro-1-benzofuran-2-carboxamide], the figures for the EC50 in assay [1], in assay [4] and in assay [5] were more than 2e-05 M, 5.73e-08 M and 2.55e-08 M, respectively. The IC50 in assay [2] turned out to be 3.54e-09 M.
On to `CCOc1ccccc1S(=O)(=O)NC(=O)c1cc2ccc(N3CC(C)(F)C3)cc2o1` [Example 116, N-(2-Ethoxybenzene-1-sulfonyl)-6-(3-fluoro-3-methylazetidin-1-yl)-1-benzofuran-2-carboxamide], for which the EC50 is more than 2e-05 M in assay [4] and 5.72e-06 M in assay [5]. The IC50 was determined as 1.45e-06 M in assay [2] and 2.29 µM in assay [3].
Consider `CCOc1ccccc1S(=O)(=O)NC(=O)c1cc2ccc(N3CC(c4ccccc4)C3)cc2o1` [Example 120, N-(2-ethoxybenzene-1-sulfonyl)-6-(3-phenylazetidin-1-yl)-1-benzofuran-2-carboxamide], for which the EC50 in assay [1] was more than 2e-05 M. Also, the IC50 is more than 2e-05 M in assay [2] and 6.52 µM in assay [3].
Consider `CC1(C)CCN1c1cc(F)c2cc(C(=O)NS(=O)(=O)c3ccccc3-c3ccccc3)oc2c1` [Example 217, 6-(2,2-Dimethylazetidin-1-yl)-4-fluoro-N-(2-phenylphenyl)sulfonyl-benzofuran-2-carboxamide], for which the EC50 in assay [1] was more than 2e-05 M. In addition, the IC50 in assay [2] was found to be 1.05e-05 M.
For the compound `CC1(C)CCN1c1cc(F)c2cc(C(=O)NS(=O)(=O)c3ccccc3)oc2c1` [Example 216, N-(benzenesulfonyl)-6-(2,2-dimethylazetidin-1-yl)-4-fluoro-benzofuran-2-carboxamide], in assay [1], the EC50 is more than 2e-05 M. Further, the IC50 is more than 2e-05 M in assay [2] and 9.56 µM in assay [3].
On to `CCc1cccc(OC)c1S(=O)(=O)NC(=O)c1cc2c(F)cc(N3CCC3)cc2o1` [Example 136, 6-(azetidin-1-yl)-N-(2-ethyl-6-methoxybenzene-1-sulfonyl)-4-fluoro-1-benzofuran-2-carboxamide], for which the EC50 in assay [1] was more than 2e-05 M. The IC50 in assay [2] is 1.4e-07 M; in assay [3], 0.0456 µM.
With `CC1CCN1c1cc(F)c2cc(C(=O)NS(=O)(=O)c3ccccc3-c3ccccc3)oc2c1` (racemic) [Example 222, 4-Fluoro-6-(2-methylazetidin-1-yl)-N-(2-phenylphenyl)sulfonyl-benzofuran-2-carboxamide (rac)], the EC50 in assay [1] was more than 2e-05 M. In addition, the IC50 in assay [2] worked out at 1.44e-06 M; in assay [3], 0.129 µM.
Taken in the same sequence, the figures for `O=C(NS(=O)(=O)c1ccccc1OC(F)(F)F)c1cc2c(F)cc(N3CCC3)cc2o1` [Example 138, 6-(Azetidin-1-yl)-4-fluoro-N-[2-(trifluoromethoxy)benzene-1-sulfonyl]-1-benzofuran-2-carboxamide] were more than 2e-05 M, 2.06e-07 M and 0.0694 µM.
The corresponding values for `CCOc1ccc(Br)cc1S(=O)(=O)NC(=O)c1cc2c(F)cc(N3CCC3)cc2o1` [Example 135, 6-(Azetidin-1-yl)-N-(5-bromo-2-ethoxybenzene-1-sulfonyl)-4-fluoro-1-benzofuran-2-carboxamide] are more than 2e-05 M, 9.74e-08 M and 0.0165 µM.
As for `O=C(NS(=O)(=O)c1cccc2c1OC(F)(F)C(F)(F)O2)c1cc2c(F)cc(N3CCC3)cc2o1` [Example 140, 6-(Azetidin-1-yl)-4-fluoro-N-(2,2,3,3-tetrafluoro-2,3-dihydro-1,4-benzodioxine-5-sulfonyl)-1-benzofuran-2-carboxamide], the EC50 in assay [1] was more than 2e-05 M. Moreover, the IC50 was 2.91e-07 M in assay [2] and 0.0276 µM in assay [3].
Regarding `Cc1ccc2cccc(S(=O)(=O)NC(=O)c3cc4c(F)cc(N5CCC5C)cc4o3)c2n1` (racemic) [Example 221, 4-Fluoro-6-(2-methylazetidin-1-yl)-N-[(2-methyl-8-quinolyl)sulfonyl]benzofuran-2-carboxamide (rac)], the EC50 in assay [1] is more than 2e-05 M. Moreover, the IC50 in assay [2] came out at 3.82e-07 M; in assay [3], 0.0615 µM.
On to `CCOc1ccccc1S(=O)(=O)NC(=O)c1cc2c(F)cc(N3CCC3C)cc2o1` (racemic) [Example 223, N-(2-Ethoxyphenyl)sulfonyl-4-fluoro-6-(2-methylazetidin-1-yl)benzofuran-2-carboxamide (rac)], for which the EC50 in assay [1] is more than 2e-05 M. Further, the IC50 stood at 7.22e-07 M in assay [2] and 0.189 µM in assay [3].
Regarding `CCOc1ccccc1S(=O)(=O)NC(=O)c1cc2ccc(N3CC(C)(C)C3)cc2o1` [Example 124, 6-(3,3-dimethylazetidin-1-yl)-N-(2-ethoxybenzene-1-sulfonyl)-1-benzofuran-2-carboxamide], in assay [1], the EC50 was more than 2e-05 M. Besides, the IC50 in assay [2] was more than 2e-05 M; in assay [3] it was more than 20 µM.
For `CC1CCN1c1cc(F)c2cc(C(=O)NS(=O)(=O)c3ccccc3)oc2c1` (racemic) [Example 220, N-(Benzenesulfonyl)-4-fluoro-6-(2-methylazetidin-1-yl)benzofuran-2-carboxamide (rac)], the EC50 in assay [1] is more than 2e-05 M. For the same compound, the IC50 in assay [2] is 6.23e-06 M; in assay [3] it was 0.982 µM.
With `Cc1ccc(F)c(S(=O)(=O)NC(=O)c2cc3c(F)cc(N4CCC4)cc3o2)c1F` [Example 88, 6-(Azetidin-1-yl)-N-(2,6-difluoro-3-methylbenzene-1-sulfonyl)-4-fluoro-1-benzofuran-2-carboxamide], the IC50 in assay [2] is 4.45e-07 M; in assay [3], 0.127 µM.
As to `O=C(NS(=O)(=O)c1cccc2nccnc12)c1cc2c(F)cc(N3CCC3)cc2o1` [Example 56, 6-(Azetidin-1-yl)-4-fluoro-N-(quinoxaline-5-sulfonyl)-1-benzofuran-2-carboxamide], the IC50 in assay [2] came out at 2.11e-06 M; in assay [3], 0.122 µM.
